This note sets out measurements from US20080221020A1, “Dendrimers as Molecular Translocators” (THE REGENTS OF THE UNIVERSITY OF CALIFORNIA, priority 2002, published 2008).

For one series, the system named is HeLa S3 cells. Put plainly: Sulphorhodamine B (SRB) cytotoxicity assay. It counts as cell-based, human. The note with it: 4 hour treatment, concentrations up to 50 μM. As to the method:
The cells were treated with varying concentrations (250 nM to 50 μM) of compound 12 for 4 hours at 37° C. The cells were fixed with trichloroacetic acid and were then subsequently stained with SRB dye. The cells were washed with water, and the SRB-bound complexes were solubilized in Tris buffer. The absorbance at 572 nm was measured in each sample.
On the technique in general: The SRB assay estimates cell density from bound dye.

The test system of series [1] is HeLa S3 human epithelioid cervical carcinoma cells. Description: Cellular uptake of fluorescein-labeled dendrimers, quantified by flow cytometry (FACS). The series is classed as cell-based. The note with it: for delivery to HeLa S3 cells: qualitative; for saturation of uptake into cells: with increasing transporter concentration; for Percentage of Cellular Uptake: 4 hours after treatment, 37° C., average of two experiments. Here is the method:
HeLa S3, human epithelioid cervical carcinoma cells of approximately 50% confluency were treated with concentrations varying from 250 nM to 50 μM of each of the molecular transporters 10, 11, 12, 13, and 41 at 37° C. The molecular transporters were directly added to the media (Dulbecco's modified eagle medium containing 10% fetal bovine serum and 1× antibiotic-antimycotic), and the delivery to the cells was visualized by microscopy.
Quantification of the uptake of the molecular transporter into the cells was performed by flow cytometry 4 hours after treatment. Adherent cells, grown on 6 well plates, were displaced with trypsin, after which the cells were washed with phosphate-buffered saline (PBS). The final cell pellet was collected by centrifugation and resuspended in PBS to a concentration of approximately 1×10^6 cells/mL. A minimum of 20,000 cell events were counted and analyzed using the FACSCalibur and CellQuest brand software (BD Biosciences, San Jose, Calif.).
Background: Flow cytometry measures light scatter and fluorescence of single cells or particles in a stream.

Series [2] can be described thus: Solubility in water observed on isolation. It counts as physicochemical. The note with it: isolated salt.

SMILES strings stand for the structures.

Consider `Cl.Cl.Cl.Cl.Cl.Cl.Cl.Cl.Cl.N=C(N)NCCNC(=O)CCOCC(COCCC(=O)NCCNC(=N)N)(COCCC(=O)NCCNC(=N)N)NC(=O)CCNC(=O)CCOCC(COCCC(=O)NCCC(=O)NC(COCCC(=O)NCCNC(=N)N)(COCCC(=O)NCCNC(=N)N)COCCC(=O)NCCNC(=N)N)(COCCC(=O)NCCC(=O)NC(COCCC(=O)NCCNC(=N)N)(COCCC(=O)NCCNC(=N)N)COCCC(=O)NCCNC(=N)N)NC(=O)CCNC(=S)Nc1ccc(-c2c3ccc(=O)cc-3oc3cc(O)ccc23)c(C(=O)O)c1` (stereo not shown) [Compound 12], for which, in the series on HeLa S3 cells, the cell lysis result is on record as “did not cause cell lysis” and the cytotoxic effect entry was “no cytotoxic effect”. In series [1], the “delivery to HeLa S3 cells” value is “excellent delivery” and the “saturation of uptake into cells” value is “approximately 100%”.

As for `Cl.Cl.Cl.Cl.Cl.Cl.Cl.Cl.Cl.Cl.Cl.Cl.N=C(N)NCCNC(=O)CCOCC(COCCC(=O)NCCNC(=N)N)(COCCC(=O)NCCNC(=N)N)NC(=O)CCNC(=O)CCOCC(COCCC(=O)NCCC(=O)NC(COCCC(=O)NCCNC(=N)N)(COCCC(=O)NCCNC(=N)N)COCCC(=O)NCCNC(=N)N)NC(=O)CCNC(=O)CCOCC(COCCC(=O)NCCC(=O)NC(COCCC(=O)NCCC(=O)NC(COCCC(=O)NCCNC(=N)N)(COCCC(=O)NCCNC(=N)N)COCCC(=O)NCCNC(=N)N)COCCC(=O)NCCC(=O)NC(COCCC(=O)NCCNC(=N)N)(COCCC(=O)NCCNC(=N)N)COCCC(=O)NCCNC(=N)N)NC(=O)CCNC(=S)Nc1ccc(-c2c3ccc(=O)cc-3oc3cc(O)ccc23)c(C(=O)O)c1` (stereo not shown) [Compound 13], in series [1], the “delivery to HeLa S3 cells” value was “excellent delivery” and the “saturation of uptake into cells” value is on record as “approximately 100%”.

For `N=C(N)NCCNC(=O)CCCCCNC(=O)CCNC(=S)Nc1ccc(-c2c3ccc(=O)cc-3oc3cc(O)ccc23)c(C(=O)O)c1` [Compound 41, 5-(3-{2-[5-(2-Guanidinoethylcarbamoyl)-pentylcarbamoyl]-ethyl}-thioureido)-2-(6-hydroxy-3-oxo-3H-xanthen-9-yl)-benzoic acid], the “solubility in H2O” value in series [2] is “barely soluble in H2O”. Also, the “Percentage of Cellular Uptake” value in series [1] (250 nM) came to 1.95%; in series [1] (500 nM) it was 2.065%; in series [1] (1 μM), 3.025%; in series [1] (5 μM) it was 16.07%; in series [1] (10 μM), 32.4%; in series [1] (25 μM) it was 67.47%. The “Percentage of Cellular Uptake” value in series [1] (50 μM) came out at 86.71%. For the same compound, the “saturation of uptake into cells” value in series [1] is given as “approximately 100%”.

In the case of `Cl.Cl.Cl.N=C(N)NCCNC(=O)CCOCC(COCCC(=O)NCCNC(=N)N)(COCCC(=O)NCCNC(=N)N)NC(=O)CCNC(=S)Nc1ccc(-c2c3ccc(=O)cc-3oc3cc(O)ccc23)c(C(=O)O)c1` (stereo not shown) [Compound 10], the “Percentage of Cellular Uptake” value turned out to be 1.845% in series [1] (250 nM); 2.89% in series [1] (500 nM); 2.85% in series [1] (1 μM); 12.44% in series [1] (5 μM); 27.91% in series [1] (10 μM); 59.15% in series [1] (25 μM). The “Percentage of Cellular Uptake” value in series [1] (50 μM) was 92.07%. The “saturation of uptake into cells” value in series [1] was “approximately 100%”.

On to `Cl.Cl.Cl.Cl.Cl.Cl.N=C(N)NCCNC(=O)CCOCC(COCCC(=O)NCCNC(=N)N)(COCCC(=O)NCCNC(=N)N)NC(=O)CCNC(=O)c1cc(C(=O)NCCNC(=O)CCNC(=S)Nc2ccc(-c3c4ccc(=O)cc-4oc4cc(O)ccc34)c(C(=O)O)c2)cc(C(=O)NCCC(=O)NC(COCCC(=O)NCCNC(=N)N)(COCCC(=O)NCCNC(=N)N)COCCC(=O)NCCNC(=N)N)c1` (stereo not shown) [Compound 11], for which, in series [1], the “delivery to HeLa S3 cells” value is “excellent delivery” and the “saturation of uptake into cells” value was “approximately 100%”.
